Experimental data published in US11576922B2, “CD73 inhibitors” (ORIC Pharmaceuticals, Inc., priority 2017, dated 2023).

Biological target: T1, CD73 (Homo sapiens, UniProt P21589)
T1 sequence (P21589 27-549): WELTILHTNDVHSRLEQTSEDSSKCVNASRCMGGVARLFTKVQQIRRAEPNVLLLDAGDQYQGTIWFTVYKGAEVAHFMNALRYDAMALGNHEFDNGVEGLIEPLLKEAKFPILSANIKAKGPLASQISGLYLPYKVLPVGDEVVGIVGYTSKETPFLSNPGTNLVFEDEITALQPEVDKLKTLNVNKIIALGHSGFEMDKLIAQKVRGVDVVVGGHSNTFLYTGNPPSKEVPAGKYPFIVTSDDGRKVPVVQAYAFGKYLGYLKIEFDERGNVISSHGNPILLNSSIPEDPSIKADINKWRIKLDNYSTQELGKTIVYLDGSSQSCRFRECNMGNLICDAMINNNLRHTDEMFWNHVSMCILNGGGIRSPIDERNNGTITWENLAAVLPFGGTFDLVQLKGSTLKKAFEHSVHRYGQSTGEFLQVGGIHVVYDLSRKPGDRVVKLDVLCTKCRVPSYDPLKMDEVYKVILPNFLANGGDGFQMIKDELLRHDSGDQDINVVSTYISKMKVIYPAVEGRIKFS
Experiment: Example A1: Biochemical Assay (CD73 inhibition, Malachite Green detection of AMP hydrolysis)
Conditions: Biochemical IC50, CD73 0.3208 nM, AMP 15 μM, Tris-HCl pH 7.4, Malachite Green, absorbance 620 nm
Description: Example A1: Biochemical Assay
Assay Reaction Conditions
• Assay Volume: 70 μl • Reaction Volume: 50 μl • CD73: 0.3208 nM • AMP: 15 μM • Assay Buffer: 2 5 mM Tris-HCL, pH 7.4, 0.01% Brij-35, 0.01% BSA, 5 mM MgCl2 Assay Procedure:
Made dose titration of testing compounds in assay buffer, 10 points ½ log titrations in duplicates starting at 100 μM.
Added 25 μl of CD73 to each well for a final concentration of […].
Incubated at RT for 15 min.
Added 25 μl of AMP to each well for a final concentration of 15 μM.
Incubated at RT for 10 min.
Added 10 μl of Malachite Green Reagent A, incubate at RT for 10 min.
Added 10 μl of Malachite Green Reagent B, incubate at RT for 45 min.
Read the Absorbance on Envision plate reader using excitation filter: Cy5 […].
The ability of the compounds disclosed herein to inhibit CD73 activity was quantified and the respective IC50 values were determined. Table 1 provides the biochemical IC50 values of compounds disclosed herein.

`O=P(O)(O)C[P@@](=O)(OC[C@H]1O[C@@H](n2nnc3c(NCc4ccccc4Cl)nc(Cl)nc32)[C@H](O)[C@@H]1O)Oc1ccccc1` [Example 33, (((R)-(((2R,3S,4R,5R)-5-(5-chloro-7-((2-chlorobenzyl)amino)-3H-[1,2,3]triazolo[4,5-d]pyrimidin-3-yl)-3,4-dihydroxytetrahydrofuran-2-yl)methoxy)(phenoxy)phosphoryl)methyl) phosphonic acid] was tested. Which IC50 did it give?
Its IC50 is 100 to 1000 nM.

Same assay, conditions: CD73 0.3208 nM, AMP 15 μM, Tris-HCl pH 7.4, Malachite Green, absorbance 620 nm; read-out: Biochemical IC50

Which IC50 does the source give for `O=P(O)(O)CP(=O)(O)OC[C@H]1O[C@@H](n2nnc3c(N[C@H]4CCc5ccccc54)nc(Cl)nc32)[C@H](O)[C@@H]1O` [Example 20, (((((2R,3S,4R,5R)-5-(5-chloro-7-(((S)-2,3-dihydro-1H-inden-1-yl)amino)-3H-[1,2,3]triazolo[4,5-d]pyrimidin-3-yl)-3,4-dihydroxytetrahydrofuran-2-yl)methoxy)(hydroxy)phosphoryl)methyl) phosphonic acid] here?
The IC50 was under 100 nM.

For `COP(=O)(CP(=O)(O)O)OC[C@H]1OC(n2nnc3c(NC4CCc5ccccc54)nc(Cl)nc32)[C@H](O)[C@@H]1O` (stereo partly drawn) [Example 34, (((((2R,3S,4R,5S)-5-(5-chloro-7-(((S)-2,3-dihydro-1H-inden-1-yl)amino)-3H-[1,2,3]triazolo[4,5-d]pyrimidin-3-yl)-3,4-dihydroxytetrahydrofuran-2-yl)methoxy)(methoxy)phosphoryl)methyl) phosphonic acid], which IC50 is on record?
Its IC50 is 100 to 1000 nM.

Which IC50 does the source give for `O=P(O)(O)CP(=O)(O)OC[C@H]1C[C@@H](n2nnc3c(NCc4ccccc4Cl)nc(Cl)nc32)[C@H](O)[C@@H]1O` [Example 2, (((((1R,2R,3S,4R)-4-(5-chloro-7-((2-chlorobenzyl)amino)-3H-[1,2,3]triazolo[4,5-d]pyrimidin-3-yl)-2,3-dihydroxycyclopentyl)methoxy)(hydroxy)phosphoryl)methyl)phosphonic acid] here?
The IC50 was 100 to 1000 nM.

How did the IC50 turn out when `CN(c1nc(Cl)nc2c1cnn2[C@@H]1O[C@H](COP(=O)(O)CP(=O)(O)O)[C@@H](O)[C@H]1O)[C@@H]1CCc2ccccc21` [Example 50, (((((2R,3S,4R,5R)-5-(6-chloro-4-(((R)-2,3-dihydro-1H-inden-1-yl)(methyl)amino)-1H-pyrazolo[3,4-d]pyrimidin-1-yl)-3,4-dihydroxytetrahydrofuran-2-yl)methoxy)(hydroxy)phosphoryl)methyl) phosphonic acid] was run?
The IC50 was under 100 nM.

Which IC50 does the source give for `O=P(O)(O)CP(=O)(O)OC[C@H]1O[C@@H](n2nnc3c(NCc4cccc(Cl)c4)nc(Cl)nc32)[C@H](O)[C@@H]1O` [Example 14, (((((2R,3S,4R,5R)-5-(5-chloro-7-((3-chlorobenzyl)amino)-3H-[1,2,3]triazolo[4,5-d]pyrimidin-3-yl)-3,4-dihydroxytetrahydrofuran-2-yl)methoxy)(hydroxy)phosphoryl)methyl) phosphonic acid] here?
Its IC50 is under 100 nM.

With `O=P(O)(O)CP(=O)(O)OC[C@H]1O[C@@H](n2nnc3c(NCc4ccc(Cl)cc4)nc(Cl)nc32)[C@H](O)[C@@H]1O` [Example 7, (((((2R,3S,4R,5R)-5-(5-chloro-7-((4-chlorobenzyl)amino)-3H-[1,2,3]triazolo[4,5-d]pyrimidin-3-yl)-3,4-dihydroxytetrahydrofuran-2-yl)methoxy)(hydroxy)phosphoryl)methyl) phosphonic acid] as the molecule, how does the IC50 read?
Its IC50 is under 100 nM.

For `O=P(O)(O)CP(=O)(O)OC[C@H]1O[C@@H](n2nnc3c(NC[C@H]4CCOC4)nc(Cl)nc32)[C@H](O)[C@@H]1O` [Example 3, (((((2R,3S,4R,5R)-5-(5-chloro-7-((((R)-tetrahydrofuran-3-yl)methyl)amino)-3H-[1,2,3]triazolo[4,5-d]pyrimidin-3-yl)-3,4-dihydroxytetrahydrofuran-2-yl)methoxy)(hydroxy)phosphoryl)methyl) phosphonic acid], which IC50 is on record?
The IC50 was 100 to 1000 nM.

How did the IC50 turn out when `C[C@@H](Nc1nc(Cl)nc2c1cnn2[C@@H]1O[C@H](COP(=O)(O)CP(=O)(O)O)[C@@H](O)[C@H]1O)c1ccccc1Cl` [Example 45, (((((2R,3S,4R,5R)-5-(6-chloro-4-(((R)-1-(2-chlorophenyl)ethyl)amino)-1H-pyrazolo[3,4-d]pyrimidin-1-yl)-3,4-dihydroxytetrahydrofuran-2-yl)methoxy)(hydroxy)phosphoryl)methyl) phosphonic acid] was run?
Its IC50 is 100 to 1000 nM.

Which IC50 does the source give for `O=P(O)(O)CP(=O)(OCc1ccccc1)OC[C@H]1O[C@@H](n2nnc3c(NCc4ccccc4Cl)nc(Cl)nc32)[C@H](O)[C@@H]1O` (stereo partly drawn) [Example 29, (((benzyloxy)(((2R,3S,4R,5R)-5-(5-chloro-7-((2-chlorobenzyl)amino)-3H-[1,2,3]triazolo[4,5-d]pyrimidin-3-yl)-3,4-dihydroxytetrahydrofuran-2-yl)methoxy)phosphoryl)methyl)phosphonic acid] here?
The IC50 was under 100 nM.

`Cc1nn([C@@H]2O[C@H](COP(=O)(O)CP(=O)(O)O)[C@@H](O)[C@H]2O)c2nc(Cl)nc(NCc3ccccc3Cl)c12` [Example 44, (((((2R,3S,4R,5R)-5-(6-chloro-4-((2-chlorobenzyl)amino)-3-methyl-1H-pyrazolo[3,4-d]pyrimidin-1-yl)-3,4-dihydroxytetrahydrofuran-2-yl)methoxy)(hydroxy)phosphoryl)methyl) phosphonic acid] was tested. Which IC50 did it give?
Its IC50 is under 100 nM.

With `O=P(O)(O)CP(=O)(O)OC[C@H]1O[C@@H](n2ncc3c(NCc4ccccc4Cl)nc(Cl)nc32)C[C@@H]1O` [Example 41, (((((2R,3S,5R)-5-(6-chloro-4-((2-chlorobenzyl)amino)-1H-pyrazolo[3,4-d]pyrimidin-1-yl)-3-hydroxytetrahydrofuran-2-yl)methoxy)(hydroxy)phosphoryl)methyl) phosphonic acid] as the molecule, how does the IC50 read?
Its IC50 is 100 to 1000 nM.

Which IC50 does the source give for `C[C@H](c1ccccc1)N(C)c1nc(Cl)nc2c1cnn2[C@@H]1O[C@H](COP(=O)(O)CP(=O)(O)O)[C@@H](O)[C@H]1O` [Example 42, (((((2R,3S,4R,5R)-5-(6-chloro-4-(methyl((R)-1-phenylethyl)amino)-1H-pyrazolo[3,4-d]pyrimidin-1-yl)-3,4-dihydroxytetrahydrofuran-2-yl)methoxy)(hydroxy)phosphoryl)methyl) phosphonic acid] here?
The IC50 was under 100 nM.

For `CN(c1nc(Cl)nc2c1nnn2[C@@H]1O[C@H](COP(=O)(O)CP(=O)(O)O)[C@@H](O)[C@H]1O)[C@@H]1CCc2ccccc21` [Example 19, (((((2R,3S,4R,5R)-5-(5-chloro-7-(((R)-2,3-dihydro-1H-inden-1-yl)(methyl)amino)-3H-[1,2,3]triazolo[4,5-d]pyrimidin-3-yl)-3,4-dihydroxytetrahydrofuran-2-yl)methoxy)(hydroxy)phosphoryl)methyl) phosphonic acid], which IC50 is on record?
Its IC50 is under 100 nM.

Which IC50 does the source give for `Nc1nc(Cl)nc2c1nnn2[C@@H]1O[C@H](COP(=O)(O)CP(=O)(O)O)[C@@H](O)[C@H]1O` [Example 4, (((((2R,3S,4R,5R)-5-(7-amino-5-chloro-3H-[1,2,3]triazolo[4,5-d]pyrimidin-3-yl)-3,4-dihydroxytetrahydrofuran-2-yl)methoxy)(hydroxy)phosphoryl)methyl) phosphonic acid] here?
Its IC50 is over 1000 nM.

For `O=P(O)(O)CP(=O)(O)OC[C@H]1O[C@@H](n2nnc3c(N4CCC[C@@H]4c4ccccc4)nc(Cl)nc32)[C@H](O)[C@@H]1O` [Example 17, (((((2R,3S,4R,5R)-5-(5-chloro-7-((R)-2-phenylpyrrolidin-1-yl)-3H-[1,2,3]triazolo[4,5-d]pyrimidin-3-yl)-3,4-dihydroxytetrahydrofuran-2-yl)methoxy)(hydroxy)phosphoryl)methyl) phosphonic acid], which IC50 is on record?
Its IC50 is 100 to 1000 nM.

With `O=P(O)(O)CP(=O)(O)OC[C@@H]1C[C@@H](O)[C@H](n2nnc3c(NCc4ccccc4Cl)nc(Cl)nc32)O1` [Example 23, (((((2S,4R,5R)-5-(5-chloro-7-((2-chlorobenzyl)amino)-3H-[1,2,3]triazolo[4,5-d]pyrimidin-3-yl)-4-hydroxytetrahydrofuran-2-yl)methoxy)(hydroxy)phosphoryl)methyl)phosphonic acid] as the molecule, how does the IC50 read?
The IC50 was under 100 nM.

Which IC50 does the source give for `C[C@H](Nc1nc(Cl)nc2c1cnn2[C@@H]1O[C@H](COP(=O)(O)CP(=O)(O)O)[C@@H](O)[C@H]1O)c1ccccc1Cl` [Example 46, (((((2R,3S,4R,5R)-5-(6-chloro-4-(((S)-1-(2-chlorophenyl)ethyl)amino)-1H-pyrazolo[3,4-d]pyrimidin-1-yl)-3,4-dihydroxytetrahydrofuran-2-yl)methoxy)(hydroxy)phosphoryl)methyl) phosphonic acid] here?
The IC50 was over 1000 nM.
